Experimental data from US10206394B2, “Herbicidal compounds” (Syngenta Participations AG, priority 2014, dated 2019).
Read-outs that look alike come from different tables or passages of the source.

Experiments:
Test in all cases: Glasshouse assay for herbicidal activity (pre- and post-emergence), percentage phytotoxicity
Assay type in all cases: in vivo
Lolium perenne (LOLPE) = settings: Lolium perenne
Method in brief: (§1)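 Visual phytotoxicity score, 0% = undamaged to 100% = total kill, read 20 days after treatment for PRE and 15 days for POST. Pots of standard soil; treatment at day 1 (PRE) or roughly day 12 (POST). Glasshouse: 16 h photoperiod, 65% RH, 24/18 or 20/16 °C by climate type.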

[1] = test system: Echinochloa crus-galli (ECHCG); settings: Echinochloa crus-galli
Method in brief: as §1

[2] = test system: Alopecurus myosuroides (ALOMY); settings: Alopecurus myosuroides
Method in brief: as §1

Avena fatua (AVEFA) = settings: Avena fatua
Method in brief: as §1

[3] = post-emergence, 360 h, 250 g/ha, post-emergence, 15 DAA, visual assessment (100%=total damage, 0%=no damage), read-out: Post-emergence herbicidal activity (percentage phytotoxicity) LOLPE POST
[4] = pre-emergence, 480 h, 250 g/ha, pre-emergence, 20 DAA, visual assessment (100%=total damage, 0%=no damage), read-out: Pre-emergence herbicidal activity (percentage phytotoxicity) LOLPE PRE
[5] = post-emergence, 360 h, 250 g/ha, post-emergence, 15 DAA, visual assessment (100%=total damage, 0%=no damage), read-out: Post-emergence herbicidal activity (percentage phytotoxicity) ECHCG POST
[6] = pre-emergence, 480 h, 250 g/ha, pre-emergence, 20 DAA, visual assessment (100%=total damage, 0%=no damage), read-out: Pre-emergence herbicidal activity (percentage phytotoxicity) ECHCG PRE
[7] = post-emergence, 360 h, 250 g/ha, post-emergence, 15 DAA, visual assessment (100%=total damage, 0%=no damage), read-out: Post-emergence herbicidal activity (percentage phytotoxicity) ALOMY POST
[8] = pre-emergence, 480 h, 250 g/ha, pre-emergence, 20 DAA, visual assessment (100%=total damage, 0%=no damage), read-out: Pre-emergence herbicidal activity (percentage phytotoxicity) ALOMY PRE
[9] = post-emergence, 360 h, 250 g/ha, post-emergence, 15 DAA, visual assessment (100%=total damage, 0%=no damage), read-out: Post-emergence herbicidal activity (percentage phytotoxicity) AVEFA POST
[10] = pre-emergence, 480 h, 250 g/ha, pre-emergence, 20 DAA, visual assessment (100%=total damage, 0%=no damage), read-out: Pre-emergence herbicidal activity (percentage phytotoxicity) AVEFA PRE
[11] = post-emergence, 360 h, POST-emergence, rate 250 g/ha, visual score 15 DAA (100%=total damage, 0%=no damage), read-out: Post-emergence herbicidal activity (percentage phytotoxicity) LOLPE POST
[12] = pre-emergence, 480 h, PRE-emergence, rate 250 g/ha, visual score 20 DAA (100%=total damage, 0%=no damage), read-out: Pre-emergence herbicidal activity (percentage phytotoxicity) LOLPE PRE
[13] = post-emergence, 360 h, POST-emergence, rate 250 g/ha, visual score 15 DAA (100%=total damage, 0%=no damage), read-out: Post-emergence herbicidal activity (percentage phytotoxicity) ECHCG POST
[14] = pre-emergence, 480 h, PRE-emergence, rate 250 g/ha, visual score 20 DAA (100%=total damage, 0%=no damage), read-out: Pre-emergence herbicidal activity (percentage phytotoxicity) ECHCG PRE
[15] = post-emergence, 360 h, POST-emergence, rate 250 g/ha, visual score 15 DAA (100%=total damage, 0%=no damage), read-out: Post-emergence herbicidal activity (percentage phytotoxicity) ALOMY POST
[16] = pre-emergence, 480 h, PRE-emergence, rate 250 g/ha, visual score 20 DAA (100%=total damage, 0%=no damage), read-out: Pre-emergence herbicidal activity (percentage phytotoxicity) ALOMY PRE
[17] = post-emergence, 360 h, POST-emergence, rate 250 g/ha, visual score 15 DAA (100%=total damage, 0%=no damage), read-out: Post-emergence herbicidal activity (percentage phytotoxicity) AVEFA POST
[18] = pre-emergence, 480 h, PRE-emergence, rate 250 g/ha, visual score 20 DAA (100%=total damage, 0%=no damage), read-out: Pre-emergence herbicidal activity (percentage phytotoxicity) AVEFA PRE
[19] = post-emergence, 360 h, Rate 250 g/ha, post-emergence, assessed visually 15 DAA, 100%=total damage, 0%=no damage, read-out: Post-emergence herbicidal activity (percentage phytotoxicity) LOLPE POST
[20] = pre-emergence, 480 h, Rate 250 g/ha, pre-emergence, assessed visually 20 DAA, 100%=total damage, 0%=no damage, read-out: Pre-emergence herbicidal activity (percentage phytotoxicity) LOLPE PRE
[21] = post-emergence, 360 h, Rate 250 g/ha, post-emergence, assessed visually 15 DAA, 100%=total damage, 0%=no damage, read-out: Post-emergence herbicidal activity (percentage phytotoxicity) ECHCG POST
[22] = pre-emergence, 480 h, Rate 250 g/ha, pre-emergence, assessed visually 20 DAA, 100%=total damage, 0%=no damage, read-out: Pre-emergence herbicidal activity (percentage phytotoxicity) ECHCG PRE
[23] = post-emergence, 360 h, Rate 250 g/ha, post-emergence, assessed visually 15 DAA, 100%=total damage, 0%=no damage, read-out: Post-emergence herbicidal activity (percentage phytotoxicity) ALOMY POST
[24] = pre-emergence, 480 h, Rate 250 g/ha, pre-emergence, assessed visually 20 DAA, 100%=total damage, 0%=no damage, read-out: Pre-emergence herbicidal activity (percentage phytotoxicity) ALOMY PRE
[25] = post-emergence, 360 h, Rate 250 g/ha, post-emergence, assessed visually 15 DAA, 100%=total damage, 0%=no damage, read-out: Post-emergence herbicidal activity (percentage phytotoxicity) AVEFA POST
[26] = pre-emergence, 480 h, Rate 250 g/ha, pre-emergence, assessed visually 20 DAA, 100%=total damage, 0%=no damage, read-out: Pre-emergence herbicidal activity (percentage phytotoxicity) AVEFA PRE

COc1cccc(CNC(=O)CC2CC(=O)C(c3c(C)cc(-c4ncc(Cl)cc4F)cc3C)C2=O)c1 (centres unmarked) [Compound B131] gave a pest or weed control at 250 g/ha (Lolium perenne (LOLPE); [3]) of 90%, a pest or weed control at 250 g/ha (Lolium perenne (LOLPE); [4]) of 80% and a pest or weed control at 250 g/ha [1, 5] of 100%. For the same molecule, the pest or weed control at 250 g/ha [1, 6] was 90%, the pest or weed control at 250 g/ha [2, 7] was 90% and the pest or weed control at 250 g/ha [2, 8] was 80%. The pest or weed control at 250 g/ha (Avena fatua (AVEFA); [9]) was 100% and the pest or weed control at 250 g/ha (Avena fatua (AVEFA); [10]) was 30%.
C=CC(C)NC(=O)CC1CC(=O)C(c2c(C)cc(-c3ncc(F)cc3F)cc2C)C1=O (centres unmarked) [Compound B330] gave a pest or weed control at 250 g/ha (Lolium perenne (LOLPE); [11]) of 100%, a pest or weed control at 250 g/ha (Lolium perenne (LOLPE); [12]) of 100% and a pest or weed control at 250 g/ha [1, 13] of 100%. For the same molecule, the pest or weed control at 250 g/ha [1, 14] was 100%, the pest or weed control at 250 g/ha [2, 15] was 100% and the pest or weed control at 250 g/ha [2, 16] was 100%. For the same molecule, the pest or weed control at 250 g/ha (Avena fatua (AVEFA); [17]) was 100% and the pest or weed control at 250 g/ha (Avena fatua (AVEFA); [18]) was 100%.
With Cc1cc(-c2ncc(Cl)s2)cc(C)c1C1C(=O)CC(CC(=O)NC(C)(C)C)C1=O (centres unmarked) [Compound B24] the pest or weed control at 250 g/ha (Lolium perenne (LOLPE); [3]) was 90%, the pest or weed control at 250 g/ha (Lolium perenne (LOLPE); [4]) was 100% and the pest or weed control at 250 g/ha [1, 5] was 100%. The pest or weed control at 250 g/ha [1, 6] was 100%, the pest or weed control at 250 g/ha [2, 7] was 90% and the pest or weed control at 250 g/ha [2, 8] was 80%. For the same molecule, the pest or weed control at 250 g/ha (Avena fatua (AVEFA); [9]) was 80% and the pest or weed control at 250 g/ha (Avena fatua (AVEFA); [10]) was 80%.
With Cc1cc(C)c(C2C(=O)CC(CC(=O)NCc3ccoc3)C2=O)c(C)c1 (centres unmarked) [Compound A99] the pest or weed control at 250 g/ha (Lolium perenne (LOLPE); [19]) was 70%, the pest or weed control at 250 g/ha (Lolium perenne (LOLPE); [20]) was 20% and the pest or weed control at 250 g/ha [1, 21] was 0%. The pest or weed control at 250 g/ha [1, 22] was 0%, the pest or weed control at 250 g/ha [2, 23] was 60% and the pest or weed control at 250 g/ha [2, 24] was 20%. The pest or weed control at 250 g/ha (Avena fatua (AVEFA); [25]) was 30% and the pest or weed control at 250 g/ha (Avena fatua (AVEFA); [26]) was 0%.
In the case of CC#Cc1cc(C)c(C2C(=O)CC(CC(=O)NCCCC)C2=O)c(C)c1 (centres unmarked) [Compound A29], the pest or weed control at 250 g/ha (Lolium perenne (LOLPE); [19]) is reported as 100%, the pest or weed control at 250 g/ha (Lolium perenne (LOLPE); [20]) is reported as 100% and the pest or weed control at 250 g/ha [1, 21] is reported as 100%. It also gave a pest or weed control at 250 g/ha [1, 22] of 100%, a pest or weed control at 250 g/ha [2, 23] of 100% and a pest or weed control at 250 g/ha [2, 24] of 100%. For the same molecule, the pest or weed control at 250 g/ha (Avena fatua (AVEFA); [25]) was 100% and the pest or weed control at 250 g/ha (Avena fatua (AVEFA); [26]) was 90%.
CCc1cc(OCC(F)(F)F)cc(C)c1C1C(=O)CC(CC(N)=O)C1=O (centres unmarked) [Compound B167] showed a pest or weed control at 250 g/ha (Lolium perenne (LOLPE); [11]) of 90%, a pest or weed control at 250 g/ha (Lolium perenne (LOLPE); [12]) of 100% and a pest or weed control at 250 g/ha [1, 13] of 100%. It also gave a pest or weed control at 250 g/ha [1, 14] of 100%, a pest or weed control at 250 g/ha [2, 15] of 100% and a pest or weed control at 250 g/ha [2, 16] of 100%. It also gave a pest or weed control at 250 g/ha (Avena fatua (AVEFA); [17]) of 100% and a pest or weed control at 250 g/ha (Avena fatua (AVEFA); [18]) of 90%.
COCCN(CCOC)C(=O)CC1CC(=O)C(c2c(C)cc(-c3ncc(F)cc3F)cc2C)C1=O (centres unmarked) [Compound B266] gave a pest or weed control at 250 g/ha (Lolium perenne (LOLPE); [11]) of 80%, a pest or weed control at 250 g/ha (Lolium perenne (LOLPE); [12]) of 90% and a pest or weed control at 250 g/ha [1, 13] of 100%. The pest or weed control at 250 g/ha [1, 14] was 100%, the pest or weed control at 250 g/ha [2, 15] was 100% and the pest or weed control at 250 g/ha [2, 16] was 100%. It also gave a pest or weed control at 250 g/ha (Avena fatua (AVEFA); [17]) of 100% and a pest or weed control at 250 g/ha (Avena fatua (AVEFA); [18]) of 40%.
